Target: T1, DtenPHY1 (Dolichomastix tenuilepis, UniProt A0A097CKJ3)
T1 construct: gene PHY; Twin-Strep-tag kept; expressed in Chlamydomonas CC400 cytosol, also in E. coli LMG194/pPL-PCB as control
Test: zinc-dependent fluorescence of SDS-PAGE blot
Assay type: binding
Details: covalent; in vitro assembly with added PCB, TES pH 8.0, room temperature, ~2 h, dark; also without added PCB

T1 sequence (A0A097CKJ3 entry or part of it): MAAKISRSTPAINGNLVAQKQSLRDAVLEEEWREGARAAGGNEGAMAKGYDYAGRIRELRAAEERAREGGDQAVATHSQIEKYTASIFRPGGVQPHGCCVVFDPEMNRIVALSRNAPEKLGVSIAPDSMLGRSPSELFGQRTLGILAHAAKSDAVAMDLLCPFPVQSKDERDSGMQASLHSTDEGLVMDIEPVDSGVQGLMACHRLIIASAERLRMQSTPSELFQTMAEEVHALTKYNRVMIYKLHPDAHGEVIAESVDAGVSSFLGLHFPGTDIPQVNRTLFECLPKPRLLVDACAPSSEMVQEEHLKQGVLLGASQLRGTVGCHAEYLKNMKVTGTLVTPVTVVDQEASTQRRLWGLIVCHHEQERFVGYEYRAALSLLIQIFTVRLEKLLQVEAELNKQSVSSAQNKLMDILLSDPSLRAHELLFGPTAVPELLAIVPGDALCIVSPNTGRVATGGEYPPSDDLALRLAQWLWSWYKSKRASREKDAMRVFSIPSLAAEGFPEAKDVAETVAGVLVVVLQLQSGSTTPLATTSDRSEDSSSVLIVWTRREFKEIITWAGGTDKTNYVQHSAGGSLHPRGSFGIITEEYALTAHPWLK

CC=C1C(=Cc2[nH]c(C=C3N=C(C=C4NC(=O)C(CC)=C4C)C(C)=C3CCC(=O)O)c(CCC(=O)O)c2C)NC(=O)C1C (stereo not shown) [PCB, phycocyanobilin]
zinc-dependent fluorescence of SDS-PAGE blot: DtenPHY1 purified from Chlamydomonas CC400 covalently binds phycocyanobilin (PCB)

Reference: article PMC5974162, “Characterization of Ferredoxin-Dependent Biliverdin Reductase PCYA1 Reveals the Dual Function in Retrograde Bilin Biosynthesis and Interaction With Light-Dependent Protochlorophyllide Oxidoreductase LPOR in Chlamydomonas reinhardtii” (Frontiers in Plant Science, 2018)
